Test results published in paper PMC3625656 (Physical biology, 2012).

Assays:
[1] = tested on: squid giant axon; assay: Axonal transport of injected fluorescent bead cargo, confocal time-lapse; format: cell-based, North Atlantic Long-Finned Squid (Loligo pealleii)
[2] = target: APP-C peptide of the affinity measurement (15 aa; human or squid sequence not told); assay: pull-down

Substance | Run length ([1]; calculated as v1/k1) [μm] | Detachment rate k1 ([1]; from average run time, Poisson distribution, run v1 > 0.1 μm s^−1, about 40 runs) [s⁻¹] | Kd [2] [nM]
GYENPTYKFFEQMQN [hAPP-C] | 11.5 | 0.0322 | 
kinesin-1 of rat brain extract (from UniProt Q2PQA9 1-963) (complex) |  |  | 4.7
